Measurements taken from ChEMBL document CHEMBL1201862, “PubChem BioAssay data set” (2004).
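Following 48 hours of exposure in 96-well plates, responses at five concentrations were used to interpolate endpoints linearly. GI50: concentration for 50% inhibition of growth.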 Calls of active or inactive are those of the source. No stated cut-off is given here; in the data, active = GI50 up to about 1.1 µM and inactive = higher. *1 amine or outer side, *2 acyl side, *3 side chain or, on linkers, in order; H or OH if unused. Where a SMILES comes first, the peptide text is derived from it. Bridges are numbered along the chain shown (N, C = ends). Roman numbers before positions name the chains, in order. [ ]: non-standard residue; d: D form. Actinocin(9to1) = Cc1c2oc3c(C)ccc(C(=O)[*:1])c3nc-2c(C(=O)[*:2])c(N)c1=O; NMeV = CN[CH](C(=O)O)C(C)C; Sar = CNCC(=O)O

Tests used:
Assay in all cases: DTP human tumour cell line panel, 48 h
SN12C = tested on: SN12C
A549 = tested on: A549
MDA-MB-435 = tested on: MDA-MB-435
HCT-116 = tested on: HCT-116
U-251 = tested on: U-251
Malme-3M = tested on: Malme-3M
PC-3 = tested on: PC-3
HOP-92 = tested on: HOP-92
NCI-H522 = tested on: NCI-H522
OVCAR-3 = tested on: OVCAR-3
SNB-75 = tested on: SNB-75
NCI-H460 = tested on: NCI-H460
786-0 = tested on: 786-0
M14 = tested on: M14
BT-549 = tested on: BT-549
SW-620 = tested on: SW-620
MDA-N = tested on: MDA-N
K562 = tested on: K562
RXF 393 = tested on: RXF 393

Compound	GI50 (SN12C)	GI50 (A549)	GI50 (MDA-MB-435)	GI50 (HCT-116)	GI50 (U-251)	GI50 (Malme-3M)	GI50 (PC-3)	GI50 (HOP-92)	GI50 (NCI-H522)	GI50 (OVCAR-3)	GI50 (SNB-75)	GI50 (NCI-H460)	GI50 (786-0)	GI50 (M14)	GI50 (BT-549)	GI50 (SW-620)	GI50 (MDA-N)	GI50 (K562)	GI50 (RXF 393)
O=c1[nH]c(Br)nc2[nH]nnc12	32.4 µM (inactive)	> 100 µM (inactive)	19.3 µM (inactive)	32 µM (inactive)	68.7 µM (inactive)	6.95 µM (inactive)	69.5 µM (inactive)	> 100 µM (inactive)	> 100 µM (inactive)	> 100 µM (inactive)	23.1 µM (inactive)	> 100 µM (inactive)	25.1 µM (inactive)	19.8 µM (inactive)	18.1 µM (inactive)	45.8 µM (inactive)	38.9 µM (inactive)	9.4 µM (inactive)	35 µM (inactive)
Clc1ccc(Cc2nc3ccccc3o2)cc1	> 100 µM (inactive)	75 µM (inactive)	> 100 µM (inactive)	66.7 µM (inactive)	72.1 µM (inactive)	> 100 µM (inactive)	55.8 µM (inactive)	> 100 µM (inactive)	33.8 µM (inactive)	52.8 µM (inactive)	20 µM (inactive)	> 100 µM (inactive)	96.4 µM (inactive)	> 100 µM (inactive)	35.8 µM (inactive)	> 100 µM (inactive)	> 100 µM (inactive)	50.7 µM (inactive)	25.3 µM (inactive)
Cc1c2oc3c(C)ccc(C(=O)NC4C(=O)NC(C(C)C)C(=O)N5CCCC5C(=O)N(C)CC(=O)N(C)C(C(C)C)C(=O)OC4C)c3nc-2c(C(=O)NC2C(=O)NC(C(C)C)C(=O)N3CCCC3C(=O)N(C)CC(=O)N(C)C(C(C)C)C(=O)OC2C)c(N)c1=O (stereo not given) (I: TVP[Sar][NMeV] / II: TVP[Sar][NMeV]; ester I:1-I:C, II:1-II:C; linker I:N-II:N via Actinocin(9to1); configuration not given here)	0.00011 µM (active)	0.000199 µM (active)	0.000461 µM (active)	< 0.0001 µM (active)	< 0.0001 µM (active)	0.000273 µM (active)	0.000428 µM (active)	0.00177 µM (active)	< 0.0001 µM (active)	0.00105 µM (active)	< 0.0001 µM (active)	< 0.0001 µM (active)	0.000143 µM (active)	0.00256 µM (active)	0.0025 µM (active)	0.000698 µM (active)	0.000197 µM (active)	< 0.0001 µM (active)	0.00136 µM (active)
CC(C)=CCC[C@@H](C)[C@H]1CC[C@@]2(C)[C@@H]3CC[C@H]4C(C)(C)[C@@H](O)CC[C@@]45C[C@@]35CC[C@]12C [CYCLOARTENOL]	20 µM (inactive)	21.6 µM (inactive)	> 41.9 µM (inactive)	23.5 µM (inactive)	15.5 µM (inactive)	> 100 µM (inactive)	> 71.8 µM (inactive)	17.7 µM (inactive)	20.7 µM (inactive)	> 100 µM (inactive)	> 55.7 µM (inactive)	17.8 µM (inactive)	43.8 µM (inactive)	41 µM (inactive)	21.1 µM (inactive)	58.2 µM (inactive)	> 72.9 µM (inactive)	26 µM (inactive)	18 µM (inactive)
Oc1ccc(Cl)cc1Sc1cc(Cl)ccc1O [FENTICLOR]	10.5 µM (inactive)	26.8 µM (inactive)	10.9 µM (inactive)	7.11 µM (inactive)	8.53 µM (inactive)	6.67 µM (inactive)	15.3 µM (inactive)	3.15 µM (inactive)	3.1 µM (inactive)	3.75 µM (inactive)	16.2 µM (inactive)	10.7 µM (inactive)	18.1 µM (inactive)	12.9 µM (inactive)	12.9 µM (inactive)	16.7 µM (inactive)	7.24 µM (inactive)	8.34 µM (inactive)	14.2 µM (inactive)
